According to patent US7041290B2, “Molecules and methods for inhibiting shedding of KIM-1” (Biogen Idec MA Inc., priority 2001, dated 2006):

How the values were obtained:
[1] = test system: Renal carcinoma cells 769-P; experiment: Cell viability with the mitochondria dye MTT; type: cell-based, human; conditions: end of the 28h-culture period, 0.5 to 32 μm
Method: (§1) Stock solutions of BB-94 and GM6001 were maintained in DMS0 at a concentration of 70 mM for BB-94 and 2.5 mM for GM6001. Compounds were diluted directly into fresh medium to concentrations ranging from 0.5 μm to 32 μm. Renal carcinoma cells 769-P were grown in RPMI medium supplemented with 10% fetal bovine serum, 10 mM HEPES, and 1 mM sodium pyruvate, and in the presence of various concentrations of BB-94 and GM6001 for 28 hours. […] The amount of soluble KIM-1 released into the extracellular milieu during the 28h-period was measured by ELISA (FIG. 5).

[2] = test system: shedding of KIM-1, renal carcinoma cells 769-P; experiment: Shedding of KIM-1 in 769-P cell culture, soluble KIM-1 by ELISA; type: cell-based, human; conditions: 769-P cells, 28 hours; for inhibition of KIM-1 shedding: 32 μM
Method: BB-94 (batismatat) and GM6001 (Ilomastat), are two broad spectrum hydroxamic acid-based zinc metalloproteinase inhibitors which inhibit several matrix metalloproteinases (MMP) (20). BB-94 is also a potent inhibitor of TACE (TNF alpha converting enzyme) (18). The activity of these two inhibitors on the shedding of KIM-1 in cell culture was examined.
as §1

| SMILES | cytotoxicity (cell viability, MTT) [1] | inhibition of KIM-1 shedding [2] | IC50 [2] | IC50 ([2]; Homo sapiens) |
| --- | --- | --- | --- | --- |
| CNC(=O)[C@H](Cc1ccccc1)NC(=O)[C@H](CC(C)C)[C@H](CSc1cccs1)C(=O)NO [BB-94, batismatat] | absence of cytotoxicity | complete inhibition | ~1000 nM |  |
| CNC(=O)[C@H](Cc1c[nH]c2ccccc12)NC(=O)[C@@H](CC(=O)NO)CC(C)C [GM6001, Ilomastat] | absence of cytotoxicity | complete inhibition |  | ~4000 nM |
